What was measured:
Assay type in all cases: in vivo
[1] = system: Johnsongrass (Sorghum halepense, SORHA); assay: Pre-emerge greenhouse herbicide test, phytotoxicity rating; conditions: 14 days after application, rating scale 0-100
Method in brief: (§1)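 Seeds sown in sandy loam one day before track-sprayer application of acetone solutions at 125–1000 g ai/ha (187 l/ha), then surface-watered to incorporate and bottom-watered. Injury scored visually at 14 days on a 0–100 scale (0 no damage, 100 complete death).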

[2] = system: barnyardgrass (Echinochloa crusgalli, ECHCG); assay: as above; conditions: 14 days after application, rating scale 0-100
Method in brief: as §1

[3] = system: green foxtail (Setaria viridis, SETVI); assay: as above; conditions: 14 days after application, rating scale 0-100
Method in brief: as §1

[4] = system: ivyleaf morningglory (Ipomoea hederacea, IPOHE); assay: as above; conditions: 14 days after application, rating scale 0-100
Method in brief: as §1

[5] = system: lambsquarters (Chenopodium album, CHEAL); assay: as above; conditions: 14 days after application, rating scale 0-100
Method in brief: as §1

[6] = system: large crabgrass (Digitaria sanguinalis, DIGSA); assay: as above; conditions: 14 days after application, rating scale 0-100
Method in brief: as §1

[7] = system: redroot pigweed (Amaranthus retroflexus, AMARE); assay: as above; conditions: 14 days after application, rating scale 0-100
Method in brief: as §1

[8] = system: sicklepod (Cassia obtusifolia, CASOB); assay: as above; conditions: 14 days after application, rating scale 0-100
Method in brief: as §1

[9] = system: velvetleaf (Abutilon theophrasti, ABUTH); assay: as above; conditions: 14 days after application, rating scale 0-100
Method in brief: as §1

[10] = system: field corn (Zea mays L., var. Dekalb 535, CORN); assay: Pre-emerge greenhouse test, crop damage rating; conditions: 14 days after application, rating scale 0-100
Method in brief: as §1

[11] = system: upland rice (Oryza sp., var.Tebonnet, RICE); assay: Pre-emerge greenhouse test, crop damage rating; conditions: 14 days after application, rating scale 0-100
Method in brief: as §1

[12] = system: soybean (Glycine max L., var. Pella 86, SOY); assay: Pre-emerge greenhouse test, crop damage rating; set-up: key to SOY crop damage rating: 0 = no damage, 100 = complete death of all plants; conditions: 14 days after application, rating scale 0-100
Method in brief: as §1

[13] = system: common ragweed (Ambrosia artemisiifolia L., AMBEL); assay: Post-emerge greenhouse herbicide test, phytotoxicity rating; conditions: 14 days after application, scale 0-100
Description: A standard greenhouse herbicide activity screening system was used to evaluate the herbicidal efficacy and crop safety of these test compounds. Six broadleaf weed species including redroot pigweed (Amaranthus retroflexus, AMARE), velvetleaf (Abutilon theophrasti, ABUTH), sicklepod (Cassia obtusifolia, CASOB), ivyleaf morningglory (Ipomoea hederacea, IPOHE), lambsquarters (Chenopodium album, CHEAL) and common ragweed (Ambrosia artemisiifolia L., AMBEL) were used as test species. Four grass weed species including green foxtail (Setaria viridis, SETVI), barnyardgrass (Echinochloa crusgalli, ECHCG), Johnsongrass (Sorghum halepense, SORHA), and large crabgrass (Digitaria sanguinalis, DIGSA) were also used. In addition, three crop species, field corn (Zea mays L., var. Dekalb 535, CORN), soybean (Glycine max L., var. Pella 86, SOY), and upland rice (Oryza sp., var.Tebonnet, RICE) were included.
All test compounds were dissolved in acetone and applied to the test units in a volume of 187 l/ha. […] Plants were arranged on a shelf so that the top of the canopy (post-emerge) or top of the soil surface (pre-emerge) was 40-45 cm below the nozzle. Pressurized air was used to force the test solution through the nozzle as it was mechanically advanced (via electrically driven chain drive) over the top of all test plants/pots. This application simulates a typical commercial field herbicide application.
In the post-emerge test, a commercial non-ionic surfactant was also included (0.25% v/v) to enhance wetting of the leaf surfaces Qf target plants at rates ranging from 63 g ai/ha to 1000 g ai/ha. For post-emerge tests, seeds were planted 8-21 days prior to the test to allow emergence and good foliage development prior to application of the test substances. At the time of the post-emerge application, plants of all species were usually at the 2-3 leaf stage of development. Post-emerge test units were always bottom-watered.
At 14 days after application of the test materials, phytotoxicity ratings were recorded. A rating scale of 0-100 was used as previously described in Research Methods in Weed Science, 2nd edition, B. Truelove, Ed., Southern Weed Science Society, Auburn University, Auburn, Ala., 1977. Briefly, “0” corresponds to no damage and “100” corresponds to complete death of all plants in the test unit. This scale was used both to determine efficacy against weed species and damage to crop species. Herbicide activity data for various compounds of this invention, which are shown by compound number in Tables 1-9, are shown in Tables 13 and 14.

[14] = system: Johnsongrass (Sorghum halepense, SORHA); assay: as above; conditions: 14 days after application, scale 0-100
Method in brief: (§2)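 Plants at the 2-3 leaf stage, sown 8-21 days earlier, were track-sprayed post-emergence with compound in acetone plus 0.25% v/v non-ionic surfactant at 63-1000 g ai/ha (187 l/ha). Damage was rated at 14 days on a 0-100 scale (0 none, 100 all plants dead), for both crop injury and weed control.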

[15] = system: barnyardgrass (Echinochloa crusgalli, ECHCG); assay: as above; conditions: 14 days after application, scale 0-100
Method in brief: as §2

[16] = system: green foxtail (Setaria viridis, SETVI); assay: as above; conditions: 14 days after application, scale 0-100
Method in brief: as §2

[17] = system: ivyleaf morningglory (Ipomoea hederacea, IPOHE); assay: as above; conditions: 14 days after application, scale 0-100
Method in brief: as §2

[18] = system: lambsquarters (Chenopodium album, CHEAL); assay: as above; conditions: 14 days after application, scale 0-100
Method in brief: as §2

[19] = system: large crabgrass (Digitaria sanguinalis, DIGSA); assay: as above; conditions: 14 days after application, scale 0-100
Method in brief: as §2

[20] = system: redroot pigweed (Amaranthus retroflexus, AMARE); assay: as above; conditions: 14 days after application, scale 0-100
Method in brief: as §2

[21] = system: sicklepod (Cassia obtusifolia, CASOB); assay: as above; conditions: 14 days after application, scale 0-100
Method in brief: as §2

[22] = system: velvetleaf (Abutilon theophrasti, ABUTH); assay: as above; conditions: 14 days after application, scale 0-100
Method in brief: as §2

[23] = system: field corn (Zea mays L., var. Dekalb 535, CORN); assay: Post-emerge greenhouse test, crop damage rating; conditions: 14 days after application, scale 0-100
Method in brief: as §2

[24] = system: upland rice (Oryza sp., var.Tebonnet, RICE); assay: Post-emerge greenhouse test, crop damage rating; conditions: 14 days after application, scale 0-100
Method in brief: as §2

[25] = system: soybean (Glycine max L., var. Pella 86, SOY); assay: Post-emerge greenhouse test, crop damage rating; set-up: key to crop damage rating SOY: 0-100 scale: 0 = no damage, 100 = complete death of all plants; conditions: 14 days after application, scale 0-100
Method in brief: as §2

CCOC(=O)C(C)Oc1ccc(Oc2cc(-n3c(=O)n4n(c3=S)CCCC4)c(F)cc2Cl)c([N+](=O)[O-])c1 (stereo not drawn) [Compound 8-39]
SORHA phytotoxicity rating ([1]; Rate 125 g al/ha): 0 | SORHA phytotoxicity rating ([1]; Rate 250 g al/ha): 0 | ECHCG phytotoxicity rating ([2]; Rate 125 g al/ha): 0 | ECHCG phytotoxicity rating ([2]; Rate 250 g al/ha): 0 | SETVI phytotoxicity rating ([3]; Rate 125 g al/ha): 0 | SETVI phytotoxicity rating ([3]; Rate 250 g al/ha): 40 | IPOHE phytotoxicity rating ([4]; Rate 125 g al/ha): 0 | IPOHE phytotoxicity rating ([4]; Rate 250 g al/ha): 0 | CHEAL phytotoxicity rating ([5]; Rate 125 g al/ha): 99 | CHEAL phytotoxicity rating ([5]; Rate 250 g al/ha): 100 | DIGSA phytotoxicity rating ([6]; Rate 125 g al/ha): 0 | DIGSA phytotoxicity rating ([6]; Rate 250 g al/ha): 0 | AMARE phytotoxicity rating ([7]; Rate 125 g al/ha): 100 | AMARE phytotoxicity rating ([7]; Rate 250 g al/ha): 100 | CASOB phytotoxicity rating ([8]; Rate 125 g al/ha): 95 | CASOB phytotoxicity rating ([8]; Rate 250 g al/ha): 0 | ABUTH phytotoxicity rating ([9]; Rate 125 g al/ha): 20 | ABUTH phytotoxicity rating ([9]; Rate 250 g al/ha): 100 | CORN crop damage rating ([10]; Rate 125 g al/ha): 0 | CORN crop damage rating ([10]; Rate 250 g al/ha): 0 | RICE crop damage rating ([11]; Rate 250 g al/ha): 20 | SOY crop damage rating ([12]; Rate 125 g al/ha): 0 | SOY crop damage rating ([12]; Rate 250 g al/ha): 0 | phytotoxicity rating AMBEL ([13]; rate 63 g ai/ha): 60 | phytotoxicity rating AMBEL ([13]; rate 230 g ai/ha): 80 | phytotoxicity rating SORHA ([14]; rate 63 g ai/ha): 0 | phytotoxicity rating SORHA ([14]; rate 230 g ai/ha): 10 | phytotoxicity rating ECHCG ([15]; rate 63 g ai/ha): 0 | phytotoxicity rating ECHCG ([15]; rate 230 g ai/ha): 30 | phytotoxicity rating SETVI ([16]; rate 63 g ai/ha): 10 | phytotoxicity rating SETVI ([16]; rate 230 g ai/ha): 10 | phytotoxicity rating IPOHE ([17]; rate 63 g ai/ha): 100 | phytotoxicity rating IPOHE ([17]; rate 230 g ai/ha): 90 | phytotoxicity rating CHEAL ([18]; rate 63 g ai/ha): 50 | phytotoxicity rating CHEAL ([18]; rate 230 g ai/ha): 70 | phytotoxicity rating DIGSA ([19]; rate 63 g ai/ha): 0 | phytotoxicity rating DIGSA ([19]; rate 230 g ai/ha): 10 | phytotoxicity rating AMARE ([20]; rate 63 g ai/ha): 70 | phytotoxicity rating AMARE ([20]; rate 230 g ai/ha): 80 | phytotoxicity rating CASOB ([21]; rate 63 g ai/ha): 100 | phytotoxicity rating CASOB ([21]; rate 230 g ai/ha): 30 | phytotoxicity rating ABUTH ([22]; rate 63 g ai/ha): 100 | phytotoxicity rating ABUTH ([22]; rate 230 g ai/ha): 100 | crop damage rating CORN ([23]; rate 63 g ai/ha): 15 | crop damage rating CORN ([23]; rate 230 g ai/ha): 10 | crop damage rating RICE ([24]; rate 63 g ai/ha): 15 | crop damage rating RICE ([24]; rate 230 g ai/ha): 15 | crop damage rating SOY ([25]; rate 63 g ai/ha): 60 | crop damage rating SOY ([25]; rate 230 g ai/ha): 80

CCOC(=O)C(C)Oc1ccc(Oc2cc(-n3c(=O)n4n(c3=O)CCCC4)c(F)cc2Cl)c([N+](=O)[O-])c1 (stereo not drawn) [Compound 8-41]
SORHA phytotoxicity rating ([1]; Rate 125 g al/ha): 0 | SORHA phytotoxicity rating ([1]; Rate 250 g al/ha): 0 | ECHCG phytotoxicity rating ([2]; Rate 125 g al/ha): 0 | ECHCG phytotoxicity rating ([2]; Rate 250 g al/ha): 0 | SETVI phytotoxicity rating ([3]; Rate 125 g al/ha): 10 | SETVI phytotoxicity rating ([3]; Rate 250 g al/ha): 50 | IPOHE phytotoxicity rating ([4]; Rate 125 g al/ha): 0 | IPOHE phytotoxicity rating ([4]; Rate 250 g al/ha): 0 | CHEAL phytotoxicity rating ([5]; Rate 125 g al/ha): 70 | CHEAL phytotoxicity rating ([5]; Rate 250 g al/ha): 90 | DIGSA phytotoxicity rating ([6]; Rate 125 g al/ha): 0 | DIGSA phytotoxicity rating ([6]; Rate 250 g al/ha): 0 | AMARE phytotoxicity rating ([7]; Rate 125 g al/ha): 80 | AMARE phytotoxicity rating ([7]; Rate 250 g al/ha): 100 | CASOB phytotoxicity rating ([8]; Rate 125 g al/ha): 0 | CASOB phytotoxicity rating ([8]; Rate 250 g al/ha): 0 | ABUTH phytotoxicity rating ([9]; Rate 125 g al/ha): 0 | ABUTH phytotoxicity rating ([9]; Rate 250 g al/ha): 70 | CORN crop damage rating ([10]; Rate 125 g al/ha): 0 | CORN crop damage rating ([10]; Rate 250 g al/ha): 0 | RICE crop damage rating ([11]; Rate 125 g al/ha): 0 | RICE crop damage rating ([11]; Rate 250 g al/ha): 0 | SOY crop damage rating ([12]; Rate 125 g al/ha): 0 | SOY crop damage rating ([12]; Rate 250 g al/ha): 0 | phytotoxicity rating AMBEL ([13]; rate 63 g ai/ha): 00 | phytotoxicity rating AMBEL ([13]; rate 250 g ai/ha): 30 | phytotoxicity rating SORHA ([14]; rate 63 g ai/ha): 0 | phytotoxicity rating SORHA ([14]; rate 250 g ai/ha): 0 | phytotoxicity rating ECHCG ([15]; rate 63 g ai/ha): 0 | phytotoxicity rating ECHCG ([15]; rate 250 g ai/ha): 0 | phytotoxicity rating SETVI ([16]; rate 63 g ai/ha): 0 | phytotoxicity rating SETVI ([16]; rate 250 g ai/ha): 0 | phytotoxicity rating IPOHE ([17]; rate 63 g ai/ha): 30 | phytotoxicity rating IPOHE ([17]; rate 250 g ai/ha): 100 | phytotoxicity rating CHEAL ([18]; rate 63 g ai/ha): 40 | phytotoxicity rating CHEAL ([18]; rate 250 g ai/ha): 50 | phytotoxicity rating DIGSA ([19]; rate 63 g ai/ha): 0 | phytotoxicity rating DIGSA ([19]; rate 250 g ai/ha): 0 | phytotoxicity rating AMARE ([20]; rate 63 g ai/ha): 40 | phytotoxicity rating AMARE ([20]; rate 250 g ai/ha): 40 | phytotoxicity rating CASOB ([21]; rate 63 g ai/ha): 30 | phytotoxicity rating CASOB ([21]; rate 250 g ai/ha): 100 | phytotoxicity rating ABUTH ([22]; rate 63 g ai/ha): 95 | phytotoxicity rating ABUTH ([22]; rate 250 g ai/ha): 100 | crop damage rating CORN ([23]; rate 63 g ai/ha): 0 | crop damage rating CORN ([23]; rate 250 g ai/ha): 0 | crop damage rating RICE ([24]; rate 63 g ai/ha): 0 | crop damage rating RICE ([24]; rate 250 g ai/ha): 0 | crop damage rating SOY ([25]; rate 63 g ai/ha): 30 | crop damage rating SOY ([25]; rate 250 g ai/ha): 60

Reference: patent publication US6479435B1, “Diaryl ethers and processes for their preparation and herbicidal and desiccant compositions containing them” (ISK Americas Incorporated, priority 1997, dated 2002)
